Values quoted from earlier work in patent publication US20030021749A1, “Treatment of cancer and other diseases by administration of positron-emitting radiopharmaceuticals” (priority 2000, published 2003).

Settings: compared with FDG

In the case of `C[N+](C)(CF)CCO` [FCH, fluorine-18 fluorocholine], the “accumulation in normal brain tissue” value is listed as “does not accumulate in normal brain tissue as readily as FDG” and the “concentration in tumor tissues” value is listed as “higher concentration in tumor tissues”.
